# Assay: hydrogen sulfide scavenging in sour Isopar M solvent
# Settings: sour Isopar M solvent with 4000 ppm H2S, scavenger dose per sample in the 5th table
# Method: Further testing was performed to compare the hydrogen sulfide scavenging properties of an exemplary embodiment of the multipurpose process chemical compared to conventional scavengers.
# A sour Isopar™ M solvent was obtained with 4000 ppm hydrogen sulfide (H2S). Samples were obtained by mixing the following with the sour Isopar™ M solvent:
# The control and Samples V-A through V-F were stirred for twenty-four (24) hours at ambient temperature (˜71° F.). […] The table below summarizes the hydrogen sulfide scavenging observed for each sample: […]
smiles,measurement,setting,value
"CC1COC(=O)O1 (centres unmarked) [Sample V-C, propylene carbonate]",% H2S reduction,"24 hours, ambient temperature",0%
same,H2S at 24 hours (ppm),"stirred 24 hours at ambient temperature (~71 F), control 3,500 ppm","3,500 ppm"

# Source: patent publication US20250002785A1, “MULTIPURPOSE IMIDAZOLINE-BASED PROCESS CHEMICALS” (Baker Hughes Oilfield Operations LLC, priority 2023, published 2025)
